Measurements as given in patent publication US9884813B1, “Pharmaceutically acceptable salts of B-guanidinopropionic acid with improved properties and uses thereof” (Rgenix, Inc., priority 2017, dated 2018).
Where “and” joins values, the source holds several entries; their conditions need not be identical. Equal entries are not always repeated. Entries after “also recorded” stand apart in the source; their conditions may differ. One block for each compound: values may come before it.

Key:
[1] = Experiments on lyophilized 2:1 fumarate polymorph (Pattern 7C); format: physicochemical
Method: 1 g of 2:1 β-GPA fumarate was dissolved in 10 mL of water at 50° C. in a round bottom flask. The round bottom flask was placed in the dry ice/acetone cooling bath (−78° C.) until the sample solidified followed by lyophilization for 48 hours. A white solid was obtained which was analyzed by XRPD, DSC and ^1H-NMR. Sample ID: 2162-84-1.
To confirm the above hypothesis the following experiments (Table 25) were performed on the lyophilized sample (Pattern 7C): […]

[2] = Dynamic vapor sorption (DVS) with XRPD of the post-DVS sample; format: physicochemical; conditions: for solid form by XRPD after the DVS experiment: post DVS sample
Method: Samples were analyzed using an Aquadyne DVS-2 gravimetric water sorption analyzer. The relative humidity was adjusted between 2-95% and the weight of the sample was continuously monitored and recorded.
[…]: β-GPA maleate (1:1) Form II, β-GPA fumarate (1:1), β-GPA maleate (2:1), β-GPA succinate (2:1) and β-GPA oxalate (1:1) were analyzed by DVS experiment followed by XRPD analysis of the sample at the end of the experiment.
Sample 2162-64-1 was analyzed by DVS in triplicate and the post DVS samples were characterized by XRPD to identify the form at the end of the experiment.

[3] = Solid form stability under stressed conditions (wet, dry, high humidity) by XRPD; format: physicochemical
Method: The solid form stability of each salt was studied by XRPD under stressed conditions: wet, dry (45° C. under vacuum) and high humidity (RH >95%).

[4] = Solid form stability of salts in different solvents (slurry, XRPD); format: physicochemical; conditions: 48 hours, room temperature
Method: Three salts were studied for solid form stability in water (disproportionation test), methanol, acetonitrile, and acetone:water (9:1) for 48 hours at room temperature.

[5] = Solid form stability at 40° C. and 75% humidity; format: physicochemical; conditions: for solid form stability (XRPD): 40° C. and 75% RH for seven days
Method: Solid form stability studies of β-GPA fumarate, succinate, and oxalate were carried out at 40° C. and 75% RH for seven days. Around 30 mg of the salts were placed in 4 mL vials which were placed in a saturated solution of sodium chloride (2 mL) with lids closed at 40° C. […]

Bulk and tapped density = format: physicochemical
Method: The bulk density of β-GPA oxalate (Pattern 18 B), succinate (Pattern 15A), and fumarate (Pattern 7A) were determined by pouring in a known amount of salt (g) into a measuring cylinder. The volume (Vi) occupied by the salt was recorded and the bulk density (ρB) was determined using equation 1. ρB=g/Vi (1)
The tapped densities of the salts were determined using a Tap density analyzer. A known amount of salt was poured (g) into a measuring cylinder and the initial volume was recorded and tapped using a Tap density analyzer. The final volume (Vf) after tapping was recorded and the tapped density (ρT) was calculated by using equation 2. ρT=g/Vf (2)

[6] = Carr's index and Hausner ratio (predicted flowability); format: physicochemical; conditions: for Carr's index / Hausner ratio: calculated from bulk and tapped volumes; for Flow character: scale of Table 6 (Carr's index)
From the text: The flow properties of β-GPA are sub-optimal. The bulk density is 0.389 g/cc and the tapped density is 0.627 g/cc. These measurements can be used to calculate the Carr's index and Hausner ratio for a substance. The Carr's index and Hausner ratio are indicators of flowability of a powder. As known in the art, e.g., as described in Carr R. L. Chem. Eng. 1965, 72, 163-168, the relationship to flowability of a powder to the Carr's index and Hausner ratio is based on the scale shown in Table 6 below.
Carr's index or Carr's compressibility index (C) is an indication of the compressibility of a powder. It can be calculated using the equation below: Carr's index (C)=100(Vi−Vf)/Vi (3) A Carr's index greater than 25 is considered to be an indication of poor flowability while a value below 15 is an indication of good flowability.
The Hausner ratio is a number that is correlated to the flowability of a powder or granular material. It is calculated by using the equation below: Hausner ratio=Vi/Vf (4)

[7] = Flowability measurement using Hanson Flodex unit; format: physicochemical; conditions: for flow character from the experimental data: summary of density and Flodex measurements
From the text: Method: A cylindrical vessel is secured to the stand and above that a funnel is also secured such that the bottom of the funnel is close to the vessel. A powder load of ≈50-60 g is then poured through the funnel into the middle of the cylinder. The lever device is pulled to open the hole in the disk quickly and without vibration. If a powder slowly flows through the small-diameter holes, leaving a cavity shaped like an upside-down, truncated cone, the test is considered positive. If a powder flocculates in bulk and falls abruptly, forming a cylindrical cavity, the test is considered negative. […] If the experiment is negative, the powder is tested again with a disk having a larger hole.

[8] = Roller compaction feasibility (slugs, capsule fill)
Method: Roller compaction feasibility was performed by producing slugs using a single station hand press then carefully hand milling those slugs so that all granules were small enough to pass through a size US 18 mesh. These granules were then filled into size 0 capsules by both the free flow and tamp method. A total of N=5 capsules were filled for each lot for each method. The average net fill weight results are given below in […]. The same issue was not seen when compressing the succinate salt form of β-GPA. Slugs produced around 1500 PSI produced slugs hard enough to be tested for hardness. The resulting slug parameters can be seen in Table 33.

[9] = Compression profile evaluation (tabletability); format: physicochemical
Method: Compression profiling was also performed on both the free base and the salt form of the API. A standard formulation containing plastic diluent, brittle diluent, disintegrant and lubricant was evaluated at a loading of 25% and 50% API. The diluent level was adjusted accordingly, but the ratio of plastic to brittle filler was set a 1:1. It was decided to use a representative tablet formulation to perform compression profiling to mitigate the cohesion and sticking issues seen in the free base and the salt form during the roller compaction feasibility evaluation. Table 37 details the formulation compositions tested.
These blends were then compressed into 100 mg compacts using 0.25-inch flat faced tooling at increasing compaction pressures. A total of N=3 compacts were produced at each compaction pressure and were measured for weight, thickness and hardness. The compression stresses used were calculated by dividing the force applied to the compact by the surface area of the 0.25 in flat faced tooling. The tensile strength of the compacts was calculated using the equations derived for flat faced tablets. For each formulation, a tabletability (tensile strength vs. compression pressure) was generated. For the purposes of this study the tabletability profile was examined to determine the compaction pressure required in order to produce a tablet of acceptable tensile strength. Historically a tablet with a tensile strength of 2.0 Mpa is sufficient to both withstand friability and to not impact disintegration and dissolution.

[10] = Solid form stability of salts in different solvents (slurry, XRPD); format: physicochemical; conditions: water, 6 hours, room temperature
[11] = Carr's index and Hausner ratio (predicted flowability); format: physicochemical; conditions: Table 18, scale of Table 17
[12] = Dynamic vapor sorption (DVS) with XRPD of the post-DVS sample; format: physicochemical; conditions: relative humidity between 0-95 percent
[13] = Average of 5 slugs, average Compression Force 1600.00 PSI (28.67 MPa)
[14] = slug, Compression Force 1500 PSI, Compression Stress 27 MPa, listed as β-Guanidinopropionic Acid Succinate Salt
[15] = slug, Compression Force 2000 PSI, Compression Stress 36 MPa

stability of the polymorph [1]: unstable
Structure (SMILES): N=C(N)NCCC(=O)O.N=C(N)NCCC(=O)O.O=C(O)/C=C/C(=O)O [Pattern 7C]

solid form by XRPD after the DVS experiment [2]: retained their XRPD
solid form by XRPD after the DVS experiment ([2]; listed as 2:1 succinate salt): no form change
solid form by XRPD after the DVS experiment ([2]; listed as 2:1 β-GPA succinate): no form change
Dry_XRPD pattern ([3]; dry (45° C. under vacuum)): Pattern 15A
stability in dry conditions ([3]; dry conditions): stable
Humid_XRPD pattern ([3]; high humidity (RH >95%)): Pattern 15A
stability under high humidity conditions ([3]; high humidity conditions): stable
Wet_XRPD pattern ([3]; wet): Pattern 15A
XRPD pattern after slurry ([4]; acetone:water (9:1)): presence of β-GPA
XRPD pattern after slurry ([4]; acetonitrile): retain its original form
XRPD pattern after slurry ([4]; acetonitrile, listed as 2:1 β-GPA succinate): retain its XRPD pattern
XRPD pattern after slurry ([4]; methanol): retain its original form
XRPD pattern after slurry ([4]; methanol, listed as 2:1 β-GPA succinate): retain its XRPD pattern
solid form stability (XRPD) ([5]; listed as 2:1 succinate salt): stable
Bulk density (Bulk and tapped density): 0.405 g/cc
Tapped density (Bulk and tapped density): 0.472 g/cc
Carr's index [6]: 14.3
Hausner ratio [6]: 1.167
Flow character ([6]; predicted): Good (11-15)
Did solid pass? ([7]; Disc pore size 5 mm): No
Did solid pass? ([7]; Disc pore size 6 mm): No
Did solid pass? ([7]; Disc pore size 7 mm): Yes
Did solid pass? ([7]; Disc pore size 8 mm): Yes
Did solid pass? ([7]; Disc pore size 10 mm): Yes
Did solid pass? ([7]; Disc pore size 18 mm): Yes
Did solid pass? ([7]; Disc pore size 20 mm): Yes
Did solid pass? ([7]; Disc pore size 22 mm): Yes
Did solid pass? ([7]; Disc pore size 24 mm): Yes
flow character from the experimental data [7]: good
Calculated Solid Fraction [8, 13]: 0.80
Tablet Hardness [8, 13]: 4.86 kp
Tensile Strength [8, 13]: 0.34 MPa
Calculated Solid Fraction ([8]; slug, Compression Force 1500 PSI, Compression Stress 27 MPa): 0.79
Tablet Hardness [8, 14]: 5.1 kp and 3.7 kp and 4.4 kp and 4.3 kp
Calculated Solid Fraction [8, 15]: 0.85
Tablet Hardness [8, 15]: 6.8 kp
Tensile Strength [8, 15]: 0.50 MPa
compaction force required to produce a tablet of 2.0 Mpa tensile strength ([9]; 25% API loading formulation): 22.7 kN
compression stress (compaction pressure) required to produce a tablet of 2.0 Mpa tensile strength ([9]; 25% API loading formulation): 150 Mpa
compaction force required to produce a tablet of 2.0 Mpa tensile strength ([9]; 50% API loading formulation): ~34.8 kN
compression stress (compaction pressure) required to produce a tablet of 2.0 Mpa tensile strength ([9]; 50% API loading formulation): ~230 Mpa
XRPD pattern after slurry [10]: two peaks from β-GPA
XRPD pattern after slurry ([10]; listed as 2:1 β-GPA succinate): started showing up peaks from β-GPA
Flow character [11]: Good (11-15)
Structure (SMILES): N=C(N)NCCC(=O)O.N=C(N)NCCC(=O)O.O=C(O)CCC(=O)O [β-GPA succinate (2:1)]
solid form stability (XRPD) [5]: retained their original XRPD pattern; also recorded: stable
Tensile Strength [8, 14]: 0.35 MPa and 0.25 MPa and 0.30 MPa and 0.29 MPa

water uptake ([2]; 80% humidity at 25° C.): ~0.3%
solid form by XRPD after the DVS experiment [2]: No change in the solid form
degradation ([5]; 40° C. at 75% humidity after 4 weeks): No degradation was observed
Bulk density (Bulk and tapped density): 0.389 g/cc
Tapped density (Bulk and tapped density): 0.627 g/cc
Carr's index [6]: 37.9
Hausner ratio [6]: 1.610
Flow character ([6]; predicted): Very poor (32-37)
Flow character by Hausner ratio ([6]; predicted, scale of Table 6 (Hausner ratio)): Very very poor (>1.60)
Did solid pass? ([7]; Disc pore size 18 mm): No
Did solid pass? ([7]; Disc pore size 20 mm): No
Did solid pass? ([7]; Disc pore size 28 mm): No
Did solid pass? ([7]; Disc pore size 30 mm): No
Did solid pass? ([7]; Disc pore size 34 mm): Yes
flow character from the experimental data [7]: poor
calculated solid fraction of slugs ([8]; slugs produced using up to 2000 psi): 74%
compression stress (compaction pressure) required to produce a tablet of 2.0 Mpa tensile strength ([9]; 25% API loading formulation): roughly 235 Mpa
moisture absorbed and desorbed [12]: around 0.1%
Flow character [11]: Very very poor (>38)
Structure (SMILES): N=C(N)NCCC(=O)O [β-GPA, β-Guanidinopropionic acid, reference compound]
compression stress (compaction pressure) required to produce a tablet of 2.0 Mpa tensile strength ([9]; 50% API loading formulation): incapable of reaching a tablet with 2.0 Mpa
